These results are taken from patent US20170240556A1, “BIFLUORODIOXALANE-AMINO-BENZIMIDAZOLE KINASE INHIBITORS FOR THE TREATMENT OF CANCER, AUTOIMMUNEINFLAMMATION AND CNS DISORDERS” (4SC DISCOVERY GMBH, priority 2012, published 2017).

For orientation: IC50 means the midpoint of a concentration-inhibition curve.

Sequence of Casein kinase 1 delta (CSKN1D) (P48730 whole entry): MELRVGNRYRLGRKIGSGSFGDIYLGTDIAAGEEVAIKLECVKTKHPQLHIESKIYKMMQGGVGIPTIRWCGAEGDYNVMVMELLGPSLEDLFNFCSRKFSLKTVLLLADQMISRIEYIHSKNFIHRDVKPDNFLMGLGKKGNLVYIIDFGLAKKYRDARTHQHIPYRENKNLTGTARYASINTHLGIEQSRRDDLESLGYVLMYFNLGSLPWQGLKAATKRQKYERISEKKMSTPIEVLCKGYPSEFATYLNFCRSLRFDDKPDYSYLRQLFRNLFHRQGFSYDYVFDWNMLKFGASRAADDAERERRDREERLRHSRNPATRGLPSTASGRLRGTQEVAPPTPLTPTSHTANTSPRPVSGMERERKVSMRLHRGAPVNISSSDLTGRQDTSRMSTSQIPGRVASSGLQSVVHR

The target of this assay is Casein kinase 1 delta (CSKN1D) (Homo sapiens, UniProt P48730). In words: Casein kinase assay, CK1 delta. Particulars: recombinant CSKN1D 5 nM, ATP 10 μM. In kind it is biochemical. The protocol:
The recombinant protein Casein kinase 1 delta (CSKN1D) was added to the substrate solution in a concentration of 5 nM and gently mixed. Dilution series in of compounds of the present invention in DMSO were added to the reaction mixture, followed after 20 min by addition of a mixture of ATP and ^33P-ATP (specific activity 0.01 μCi/μl final) to a final concentration of 10 μM. Reactions were carried out at 25° C. for 120 min, followed by spotting the reactions onto P81 ion exchange filter paper. Unbound phosphate was removed by washing of the filters in 0.75% phosphoric acid. […] IC50 values and curve fits were obtained using the program Prism® (Graph Pad Software).
As to `NS(=O)(=O)c1ccc(C(=O)Nc2nc3cc4c(cc3[nH]2)OC(F)(F)O4)cc1` [Compound 62, N-(2,2-difluoro-5H-[1,3]dioxolo[4′,5′:4,5]benzo[1,2-d]imidazol-6-yl)-4-sulfamoylbenzamide], the IC50 is less than 200 nM.

As for `O=C(Nc1nc2cc3c(cc2[nH]1)OC(F)(F)O3)c1ccc([N+](=O)[O-])s1` [Compound 63, N-(2,2-difluoro-5H-[1,3]dioxolo[4′,5′:4,5]benzo[1,2-d]imidazol-6-yl)-5-nitrothiophene-2-carboxamide], the IC50 is 200 to 1000 nM.

Turning to `O=C(Nc1nc2cc3c(cc2[nH]1)OC(F)(F)O3)c1sccc1Cl` [Compound 64, 3-chloro-N-(2,2-difluoro-5H-[1,3]dioxolo[4′,5′:4,5]benzo[1,2-d]imidazol-6-yl)thiophene-2-carboxamide], the IC50 was more than 1000 nM.

Take `O=C(Nc1nc2cc3c(cc2[nH]1)OC(F)(F)O3)c1cccc([N+](=O)[O-])c1` [Compound 65, N-(2,2-difluoro-5H-[1,3]dioxolo[4′,5′:4,5]benzo[1,2-d]imidazol-6-yl)-3-nitrobenzamide]: the IC50 is less than 200 nM.

Turning to `O=C(Nc1nc2cc3c(cc2[nH]1)OC(F)(F)O3)c1cccc(C(F)(F)F)c1` [Compound 66, N-(2,2-difluoro-5H-[1,3]dioxolo[4′,5′:4,5]benzo[1,2-d]imidazol-6-yl)-3-(trifluoromethyl)benzamide], the IC50 is less than 200 nM.

As for `O=C(Nc1nc2cc3c(cc2[nH]1)OC(F)(F)O3)c1ccccn1` [Compound 67, N-(2,2-difluoro-5H-[1,3]dioxolo[4′,5′:4,5]benzo[1,2-d]imidazol-6-yl)picolinamide], the IC50 was more than 1000 nM.

`O=C(Nc1nc2cc3c(cc2[nH]1)OC(F)(F)O3)c1cccc(F)c1` [Compound 70, N-(2,2-difluoro-5H-[1,3]dioxolo[4′,5′:4,5]benzo[1,2-d]imidazol-6-yl)-3-fluorobenzamide]: the IC50 is less than 200 nM.

`O=C(Nc1nc2cc3c(cc2[nH]1)OC(F)(F)O3)c1cnco1` [Compound 71, N-(2,2-difluoro-5H-[1,3]dioxolo[4′,5′:4,5]benzo[1,2-d]imidazol-6-yl)oxazole-5-carboxamide]: the 50% inhibitory concentration (IC50) lay within 200 to 1000 nM.

For the molecule `O=C(Nc1nc2cc3c(cc2[nH]1)OC(F)(F)O3)c1ccno1` [Compound 72, N-(2,2-difluoro-5H-[1,3]dioxolo[4′,5′:4,5]benzo[1,2-d]imidazol-6-yl)isoxazole-5-carboxamide], the IC50 lay in the range of 200 to 1000 nM.

`O=C(Nc1nc2cc3c(cc2[nH]1)OC(F)(F)O3)c1cc[nH]n1` [Compound 73, N-(2,2-difluoro-5H-[1,3]dioxolo[4′,5′:4,5]benzo[1,2-d]imidazol-6-yl)-1H-pyrazole-3-carboxamide]: the IC50 is more than 1000 nM.

On to `CCN(CC)c1ccc(C(=O)Nc2nc3cc4c(cc3[nH]2)OC(F)(F)O4)cc1` [Compound 74, 4-(diethylamino)-N-(2,2-difluoro-5H-[1,3]dioxolo[4′,5′:4,5]benzo[1,2-d]imidazol-6-yl)benzamide], for which the IC50 lay in the range of 200 to 1000 nM.

In the case of `CN(C)c1ccc(C(=O)Nc2nc3cc4c(cc3[nH]2)OC(F)(F)O4)cc1` [Compound 75, N-(2,2-difluoro-5H-[1,3]dioxolo[4′,5′:4,5]benzo[1,2-d]imidazol-6-yl)-4-(dimethylamino)benzamide], the IC50 was less than 200 nM.

With `O=C(Nc1nc2cc3c(cc2[nH]1)OC(F)(F)O3)c1ccc(NCc2ccccc2)cc1` [Compound 76, 4-(benzylamino)-N-(2,2-difluoro-5H-[1,3]dioxolo[4′,5′:4,5]benzo[1,2-d]imidazol-6-yl)benzamide], the IC50 was less than 200 nM.

Turning to `CCNc1ccc(C(=O)Nc2nc3cc4c(cc3[nH]2)OC(F)(F)O4)cc1` [Compound 77, N-(2,2-difluoro-5H-[1,3]dioxolo[4′,5′:4,5]benzo[1,2-d]imidazol-6-yl)-4-(ethylamino)benzamide], the IC50 is less than 200 nM.

In the case of `O=C(Nc1nc2cc3c(cc2[nH]1)OC(F)(F)O3)c1cccnc1` [Compound 78, N-(2,2-difluoro-5H-[1,3]dioxolo[4′,5′:4,5]benzo[1,2-d]imidazol-6-yl)nicotinamide], the IC50 was less than 200 nM.

For the molecule `O=C(Nc1nc2cc3c(cc2[nH]1)OC(F)(F)O3)C1CCCCC1` [Compound 80, N-(2,2-difluoro-5H-[1,3]dioxolo[4′,5′:4,5]benzo[1,2-d]imidazol-6-yl)cyclohexanecarboxamide], the IC50 was less than 200 nM.

Turning to `O=C(Nc1nc2cc3c(cc2[nH]1)OC(F)(F)O3)c1csc(-c2ccsc2)n1` [Compound 81, N-(2,2-difluoro-5H-[1,3]dioxolo[4′,5′:4,5]benzo[1,2-d]imidazol-6-yl)-2-(thiophen-3-yl)thiazole-4-carboxamide], the IC50 is less than 200 nM.

For `O=C(Nc1nc2cc3c(cc2[nH]1)OC(F)(F)O3)c1csc(-c2ccc3c(c2)OCCO3)n1` [Compound 82, N-(2,2-difluoro-5H-[1,3]dioxolo[4′,5′:4,5]benzo[1,2-d]imidazol-6-yl)-2-(2,3-dihydrobenzo[b][1,4]dioxin-6-yl)thiazole-4-carboxamide], the IC50 is less than 200 nM.

Take `N#Cc1ccc(C(=O)Nc2nc3cc4c(cc3[nH]2)OC(F)(F)O4)c(F)c1` [Compound 93, 4-cyano-N-(2,2-difluoro-5H-[1,3]dioxolo[4′,5′:4,5]benzo[1,2-d]imidazol-6-yl)-2-fluorobenzamide]: the IC50 is more than 1000 nM.

For `NC(=O)c1ccc(C(=O)Nc2nc3cc4c(cc3[nH]2)OC(F)(F)O4)c(F)c1` [Compound 94, N^1-(2,2-difluoro-5H-[1,3]dioxolo[4′,5′:4,5]benzo[1,2-d]imidazol-6-yl)-2-fluoroterephthalamide], the 50% inhibitory concentration (IC50) was less than 200 nM.

Turning to `NS(=O)(=O)c1cccc(C(=O)Nc2nc3cc4c(cc3[nH]2)OC(F)(F)O4)c1` [Compound 100, N-(2,2-difluoro-5H-[1,3]dioxolo[4′,5′:4,5]benzo[1,2-d]imidazol-6-yl)-3-sulfamoylbenzamide], the IC50 is less than 200 nM.

As to `NS(=O)(=O)c1c[nH]c(C(=O)Nc2nc3cc4c(cc3[nH]2)OC(F)(F)O4)c1` [Compound 101, N-(2,2-difluoro-5H-[1,3]dioxolo[4′,5′:4,5]benzo[1,2-d]imidazol-6-yl)-4-sulfamoyl-1H-pyrrole-2-carboxamide], the IC50 was less than 200 nM.

Consider `O=C(Nc1nc2cc3c(cc2[nH]1)OC(F)(F)O3)c1c[nH]cn1` [Compound 103, N-(2,2-difluoro-5H-[1,3]dioxolo[4′,5′:4,5]benzo[1,2-d]imidazol-6-yl)-1H-imidazole-4-carboxamide], for which the IC50 lay in the range of 200 to 1000 nM.

`COC(=O)c1cccc(C(=O)Nc2nc3cc4c(cc3[nH]2)OC(F)(F)O4)c1` [Compound 105, methyl 3-((2,2-difluoro-5H-[1,3]dioxolo[4′,5′:4,5]benzo[1,2-d]imidazol-6-yl)carbamoyl)benzoate]: the half-maximal inhibitory concentration (IC50) is less than 200 nM.

For `O=C(Nc1nc2cc3c(cc2[nH]1)OC(F)(F)O3)c1ccc(Cl)cc1` [Compound 106, 4-chloro-N-(2,2-difluoro-5H-[1,3]dioxolo[4′,5′:4,5]benzo[1,2-d]imidazol-6-yl)benzamide], the IC50 was more than 1000 nM.

Regarding `Cc1ccc(C(=O)Nc2nc3cc4c(cc3[nH]2)OC(F)(F)O4)cc1` [Compound 107, N-(2,2-difluoro-5H-[1,3]dioxolo[4′,5′:4,5]benzo[1,2-d]imidazol-6-yl)-4-methylbenzamide], the IC50 was more than 1000 nM.

Consider `CS(=O)(=O)Nc1cccc(C(=O)Nc2nc3cc4c(cc3[nH]2)OC(F)(F)O4)c1` [Compound 108, N-(2,2-difluoro-5H-[1,3]dioxolo[4′,5′:4,5]benzo[1,2-d]imidazol-6-yl)-3-(methylsulfonamido)benzamide], for which the IC50 is less than 200 nM.

As to `O=C(Nc1nc2cc3c(cc2[nH]1)OC(F)(F)O3)c1ccc(Cl)c(Cl)c1` [Compound 109, 3,4-dichloro-N-(2,2-difluoro-5H-[1,3]dioxolo[4′,5′:4,5]benzo[1,2-d]imidazol-6-yl)benzamide], the 50% inhibitory concentration (IC50) lay in the range of 200 to 1000 nM.

As to `Nc1ccc(C(=O)Nc2nc3cc4c(cc3[nH]2)OC(F)(F)O4)cn1` [Compound 110, 6-amino-N-(2,2-difluoro-5H-[1,3]dioxolo[4′,5′:4,5]benzo[1,2-d]imidazol-6-yl)nicotinamide], the IC50 was in the range of 200 to 1000 nM.

Turning to `NS(=O)(=O)c1ccc(C(=O)Nc2nc3cc4c(cc3[nH]2)OC(F)(F)O4)cn1` [Compound 112, N-(2,2-difluoro-5H-[1,3]dioxolo[4′,5′:4,5]benzo[1,2-d]imidazol-6-yl)-6-sulfamoylnicotinamide], the IC50 was less than 200 nM.

Regarding `O=C(Nc1nc2cc3c(cc2[nH]1)OC(F)(F)O3)c1cccc(O)c1` [Compound 113, N-(2,2-difluoro-5H-[1,3]dioxolo[4′,5′:4,5]benzo[1,2-d]imidazol-6-yl)-3-hydroxybenzamide], the IC50 is less than 200 nM.

In the case of `CC(=O)c1cccc(C(=O)Nc2nc3cc4c(cc3[nH]2)OC(F)(F)O4)c1` [Compound 114, 3-acetyl-N-(2,2-difluoro-5H-[1,3]dioxolo[4′,5′:4,5]benzo[1,2-d]imidazol-6-yl)benzamide], the IC50 was less than 200 nM.

On to `CC(C)(C)c1ccc(C(=O)Nc2nc3cc4c(cc3[nH]2)OC(F)(F)O4)cc1` [Compound 115, 4-(tert-butyl)-N-(2,2-difluoro-5H-[1,3]dioxolo[4′,5′:4,5]benzo[1,2-d]imidazol-6-yl)benzamide], for which the IC50 lay within 200 to 1000 nM.

Consider `N#Cc1cccc(C(=O)Nc2nc3cc4c(cc3[nH]2)OC(F)(F)O4)c1` [Compound 116, 3-cyano-N-(2,2-difluoro-5H-[1,3]dioxolo[4′,5′:4,5]benzo[1,2-d]imidazol-6-yl)benzamide], for which the IC50 was less than 200 nM.

As to `O=C(Nc1nc2cc3c(cc2[nH]1)OC(F)(F)O3)c1cccc(-c2nnn[nH]2)c1` [Compound 118, N-(2,2-difluoro-5H-[1,3]dioxolo[4′,5′:4,5]benzo[1,2-d]imidazol-6-yl)-3-(1H-tetrazol-5-yl)benzamide], the IC50 is less than 200 nM.
